system: HIF-2α HIS TAG-PASB Domain; test: HIF-2α Scintillation Proximity Assay (SPA); type: binding
Protocol: The percent inhibition was determined and IC50 values were calculated using the Dotmatics system based on the following equation: % inhibition=[(high control−sample)/(high control−low control)]×100.

IC50 | SMILES
1300 nM | CS(=O)(=O)c1ccc(Oc2cc(F)cc(C#N)c2)c2c1[C@H](O)[C@H](F)[C@@H]2O [Compound 296, 3-fluoro-5-[(1S,2R,3R)-2-fluoro-1,3-dihydroxy-7-methylsulfonyl-indan-4-yl]oxy-benzonitrile]
12400 nM | N#CN=S(=O)(c1ccc(Oc2cc(F)cc(C#N)c2)c2c1[C@H](O)[C@H](F)C2)C(F)F (stereo partly drawn) [Compound 297, N-(((2R,3S)-7-(3-cyano-5-fluorophenoxy)-2-fluoro-3-hydroxy-2,3-dihydro-1H-inden-4-yl)(difluoromethyl)(oxo)-λ^6-sulfanylidene)cyanamide]
16100 nM | C[C@]1(F)Cc2c(Oc3cc(F)cc(C#N)c3)ccc(S(C)(=O)=O)c2[C@@H]1O [Compound 298, 3-fluoro-5-(((1S,2S)-2-fluoro-1-hydroxy-2-methyl-7-(methylsulfonyl)-2,3-dihydro-1H-inden-4-yl)oxy)benzonitrile]
16100 nM | N#CN=S(=O)(c1ccc(Oc2cc(F)cc(C#N)c2)c2c1[C@H](O)[C@H](F)C2)C(F)F (stereo partly drawn) [Compound 299, N-(((2R,3S)-7-(3-cyano-5-fluorophenoxy)-2-fluoro-3-hydroxy-2,3-dihydro-1H-inden-4-yl)(difluoromethyl)(oxo)-λ^6-sulfanylidene)cyanamide]
2030 nM | C[C@@]1(F)Cc2c(Oc3cc(F)cc(C#N)c3)ccc(S(C)(=O)=O)c2[C@@H]1O [Compound 300]
1900 nM | C[C@@H]1Cc2c(Oc3cc(F)cc(C#N)c3)ccc(S(C)(=O)=O)c2[C@@H]1O [Compound 301, 3-fluoro-5-(((1R,2R)-1-hydroxy-2-methyl-7-(methylsulfonyl)-2,3-dihydro-1H-inden-4-yl)oxy)benzonitrile]
8700 nM | CS(=O)(=O)c1ccc(Oc2cc(F)cc(C#N)c2)c2c1[C@H](O)C(F)(F)[C@H]2O [Compound 311, 3-[(1S,3S)-2,2-difluoro-1,3-dihydroxy-7-methylsulfonyl-indan-4-yl]oxy-5-fluoro-benzonitrile]
150 nM | CS(=O)(=O)c1ccc(Oc2cc(F)cc(C#N)c2)c2c1[C@H](O)C(F)(F)[C@@H]2O [Compound 312, 3-[(1S,3R)-2,2-difluoro-1,3-dihydroxy-7-methylsulfonyl-indan-4-yl]oxy-5-fluoro-benzonitrile]
1800 nM | CS(=O)(=O)c1ccc(Oc2cncc(C#N)c2)c2c1[C@H](O)[C@H](F)C2 [Compound 313, 5-(((1S,2R)-2-fluoro-1-hydroxy-7-(methylsulfonyl)-2,3-dihydro-1H-inden-4-yl)oxy)nicotinonitrile]
2380 nM | CS(=O)(=NC#N)c1ccc(Oc2cc(F)cc(C#N)c2)c2c1[C@H](O)C(F)(F)[C@H]2F (stereo partly drawn) [Compound 318, [[(1S,3S)-7-(3-cyano-5-fluoro-phenoxy)-1,2,2-trifluoro-3-hydroxy-indan-4-yl]-methyl-oxo-λ^6-sulfanylidene]cyanamide]
5250 nM | CS(=O)(=O)c1ccc(Oc2cncc(Br)c2)c2c1C(=O)C(F)(F)C2 [Compound 323, 4-((5-Bromopyridin-3-yl)oxy)-2,2-difluoro-7-(methylsulfonyl)-2,3-dihydro-1H-inden-1-one]
54 nM | CS(=O)(=O)c1ccc(Oc2cncc(Br)c2)c2c1[C@H](O)C(F)(F)C2 [Compound 324, (S)-4-((5-Bromopyridin-3-yl)oxy)-2,2-difluoro-7-(methylsulfonyl)-2,3-dihydro-1H-inden-1-ol]
180 nM | CS(=O)(=O)c1ccc(Oc2cncc(C#N)c2)c2c1[C@H](O)C(F)(F)C2 [Compound 325, (S)-5-((2,2-Difluoro-1-hydroxy-7-(methylsulfonyl)-2,3-dihydro-1H-inden-4-yl)oxy)nicotinonitrile]
1280 nM | CS(=O)(=O)c1ccc(Oc2cncc(Br)c2)c2c1[C@H](O)[C@H](F)C2 [Compound 326, (1S,2R)-4-((5-Bromopyridin-3-yl)oxy)-2-fluoro-7-(methylsulfonyl)-2,3-dihydro-1H-inden-1-ol]
28 nM | CS(=O)(=O)c1ccc(Oc2ccc(F)c(C#N)c2)c2c1[C@H](O)C(F)(F)[C@@H]2F [Compound 327, 2-Fluoro-5-(((1S,3R)-2,2,3-trifluoro-1-hydroxy-7-(methylsulfonyl)-2,3-dihydro-1H-inden-4-yl)oxy)benzonitrile]
32 nM | CS(=O)(=O)c1ccc(Oc2cncc(Br)c2)c2c1[C@H](O)[C@H](F)[C@@H]2F [Compound 328, (1S,2S,3R)-4-((5-Bromopyridin-3-yl)oxy)-2,3-difluoro-7-(methylsulfonyl)-2,3-dihydro-1H-inden-1-ol]
< 5 nM | CS(=O)(=O)c1ccc(Oc2cncc(F)c2)c2c1[C@H](O)C(F)(F)[C@@H]2F [Compound 329, (1S,3R)-2,2,3-trifluoro-4-((5-fluoropyridin-3-yl)oxy)-7-(methylsulfonyl)-2,3-dihydro-1H-inden-1-ol]
2090 nM | CS(=O)(=O)c1ccc(Oc2cncc(F)c2)c2c1[C@H](O)C(F)(F)[C@H]2F [Compound 330, (1S,3S)-2,2,3-trifluoro-4-((5-fluoropyridin-3-yl)oxy)-7-(methylsulfonyl)-2,3-dihydro-1H-inden-1-ol]
7 nM | CS(=O)(=O)c1ccc(Oc2cncc(Cl)c2)c2c1[C@H](O)C(F)(F)[C@@H]2F [Compound 331, (1S,3R)-4-((5-chloropyridin-3-yl)oxy)-2,2,3-trifluoro-7-(methylsulfonyl)-2,3-dihydro-1H-inden-1-ol]

IC50 | SMILES
2330 nM | CS(=O)(=O)c1ccc(Oc2cncc(Cl)c2)c2c1[C@H](O)C(F)(F)[C@H]2F [Compound 332, (1S,3S)-4-((5-chloropyridin-3-yl)oxy)-2,2,3-trifluoro-7-(methylsulfonyl)-2,3-dihydro-1H-inden-1-ol]
74 nM | CS(=O)(=O)c1ccc(Oc2cncc(C#N)c2)c2c1[C@H](O)[C@H](F)[C@@H]2F [Compound 333, 5-(((1S,2S,3R)-2,3-difluoro-1-hydroxy-7-(methylsulfonyl)-2,3-dihydro-1H-inden-4-yl)oxy)nicotinonitrile]
73 nM | N#Cc1cc(F)cc(Oc2ccc(S(N)(=O)=O)c3c2C[C@@H](F)[C@H]3O)c1 [Compound 334, (2R,3S)-7-(3-cyano-5-fluoro-phenoxy)-2-fluoro-3-hydroxy-indane-4-sulfonamide]
3670 nM | N#Cc1cc(F)cc(Oc2ccc(S(N)(=O)=O)c3c2[C@@H](O)C(F)(F)[C@H]3O)c1 [Compound 337, (1R,3S)-7-(3-cyano-5-fluoro-phenoxy)-2,2-difluoro-1,3-dihydroxy-indane-4-sulfonamide]
24 nM | N#Cc1cncc(Oc2ccc(S(N)(=O)=O)c3c2[C@@H](F)C(F)(F)[C@H]3O)c1 [Compound 340, (1R,3S)-7-[(5-cyano-3-pyridyl)oxy]-1,2,2-trifluoro-3-hydroxy-indane-4-sulfonamide]
18 nM | NS(=O)(=O)c1ccc(Oc2cncc(F)c2)c2c1[C@H](O)C(F)(F)[C@@H]2F [Compound 341, (1R,3S)-1,2,2-trifluoro-7-[(5-fluoro-3-pyridyl)oxy]-3-hydroxy-indane-4-sulfonamide]
40 nM | CS(=O)(=O)c1ccc(Oc2cncc(C#N)c2)c2c1[C@H](O)C(F)(F)[C@@H]2F [Compound 342, 5-(((1S,3R)-2,2,3-trifluoro-1-hydroxy-7-(methylsulfonyl)-2,3-dihydro-1H-inden-4-yl)oxy)nicotinonitrile]
23900 nM | CS(=O)(=O)c1ccc(Oc2cncc(C#N)c2)c2c1[C@H](O)C(F)(F)[C@H]2F [Compound 343, 5-(((1S,3S)-2,2,3-trifluoro-1-hydroxy-7-(methylsulfonyl)-2,3-dihydro-1H-inden-4-yl)oxy)nicotinonitrile]
6.7 nM | N#Cc1cncc(Oc2ccc(S(=O)(=O)CF)c3c2[C@@H](F)C(F)(F)[C@H]3O)c1 [Compound 344, 5-(((1S,3R)-2,2,3-trifluoro-7-((fluoromethyl)sulfonyl)-1-hydroxy-2,3-dihydro-1H-inden-4-yl)oxy)nicotinonitrile]
2180 nM | N#Cc1cncc(Oc2ccc(S(=O)(=O)CF)c3c2[C@H](F)C(F)(F)[C@H]3O)c1 [Compound 345, 5-(((1S,3S)-2,2,3-trifluoro-7-((fluoromethyl)sulfonyl)-1-hydroxy-2,3-dihydro-1H-inden-4-yl)oxy)nicotinonitrile]
515 nM | CS(=O)(=O)c1ccc(Oc2cc(F)cc(C#N)c2)c2c1[C@H](N)C(F)(F)[C@@H]2F [Compound 346]
250 nM | N#Cc1cncc(Oc2ccc(S(=O)(=O)C(F)F)c3c2CC(F)(F)[C@H]3O)c1 [Example 27, (S)-5-((7-((Difluoromethyl)sulfonyl)-2,2-difluoro-1-hydroxy-2,3-dihydro-1H-inden-4-yl)oxy)nicotinonitrile]
< 5 nM | O=S(=O)(c1ccc(Oc2cc(F)cc(F)c2)c2c1[C@H](O)CC2)C(F)(F)F [Example 55, (R)-4-(3,5-Difluorophenoxy)-7-((trifluoromethyl)sulfonyl)-2,3-dihydro-1H-inden-1-ol]
< 5 nM | O[C@@H]1CCc2c(Oc3cc(F)cc(F)c3)ccc(C(F)(F)F)c21 [Example 58, (R)-4-(3,5-Difluorophenoxy)-7-(trifluoromethyl)-2,3-dihydro-1H-inden-1-ol]
350 nM | CS(=O)(=O)c1ccc(Oc2cncc(Cl)c2)c2c1[C@H](O)C(F)(F)C2 [Example 115, (S)-4-((5-Chloropyridin-3-yl)oxy)-2,2-difluoro-7-(methylsulfonyl)-2,3-dihydro-1H-inden-1-ol]
< 5 nM | CS(=O)(=O)c1ccc(Oc2cc(F)cc(Cl)c2)c2c1[C@H](O)C(F)(F)C2 [Example 160, (1S)-4-(3-Chloro-5-fluoro-phenoxy)-2,2-difluoro-7-methylsulfonyl-indan-1-ol]
< 5 nM | N#Cc1cc(F)cc(Oc2ccc(S(=O)(=O)C(F)(F)F)c3c2CC(F)(F)[C@H]3O)c1 [Example 185, (S)-3-((2,2-Difluoro-1-hydroxy-7-((trifluoromethyl)sulfonyl)-2,3-dihydro-1H-inden-4-yl)oxy)-5-fluorobenzonitrile]
< 5 nM | O=S(=O)(c1ccc(Oc2cncc(Cl)c2)c2c1[C@H](O)C(F)(F)C2)C(F)(F)F [Example 186, (S)-4-((5-Chloropyridin-3-yl)oxy)-2,2-difluoro-7-((trifluoromethyl)sulfonyl)-2,3-dihydro-1H-inden-1-ol]

Source: patent US9896418B2, “Aryl ethers and uses thereof” (Peloton Therapeutics, Inc., priority 2013, dated 2018)
